The subject of one series is C. albicans B5. The series can be described thus: agar dilution method, C. albicans B5. The series is classed as cell-based, Candida albicans. As to conditions: for MIC: Candida albicans, B5, 48 h. In general terms: In agar dilution, organisms are placed on agar that contains the substance at set levels.
The next series has as its system C. albicans B4. The series can be described thus: agar dilution method, C. albicans B4. Format: cell-based, Candida albicans. The note with it: for MIC: Candida albicans, B4, 48 h.
For a further series, the system named is C. albicans 3152. As to the kind of experiment: agar dilution method, C. albicans 3152. The series is classed as cell-based, Candida albicans. The note with it: for MIC: Candida albicans, 48 h, alone, 37° C., 2 days.
The next series has as its system C. albicans H12. The series can be described thus: agar dilution method, C. albicans H12. The series is classed as cell-based, Candida albicans. As to conditions: for MIC: Candida albicans, H12, 48 h.
Another series has as its system C. albicans 3153. The series can be described thus: agar dilution method, C. albicans 3153. The series is classed as cell-based, Candida albicans. The note with it: for MIC: Candida albicans, 3153, 48 h, alone, 37° C., 2 days.
A further series relates to C. albicans H29. As to the kind of experiment: agar dilution method, C. albicans H29. The series is classed as cell-based, Candida albicans. The note with it: for MIC: Candida albicans, H29, 48 h, alone, 37° C., 2 days; for FIC: synergistic when FIC <0.5.
Series [1] addresses T1, 2,3-epoxysqualene-lanosterol cyclase (Candida albicans, UniProt Q04782).
T1 construct: there was obtained a cell-free extract (CFE) as the supernatant; endogenous in cells; host or cells: Candida albicans culture, protoplasts ruptured, cell-free extract (10000 g supernatant)
The series can be described thus: inhibition of 2,3-epoxysqualene-lanosterol cyclase from Candida albicans (cell-free extract, 14C-squalene epoxide). The series is classed as biochemical.

In another series the test system is Candida albicans. The series can be described thus: agar dilution method, synergism with sterol biosynthesis inhibitors. The series is classed as cell-based. The note with it: in combination with ketoconazole or terbinafine; synergistic when FIC <0.5.
The nature of series [2]: acute toxicity, single oral administration to mice. As to conditions: mouse, in vivo. As to the method: The IC50 values were determined graphically and were given in μg of test substance per mL. Table I hereinafter contains IC50 values determined in the above test for representative members of the class of compound defined by formula I as well as concerning the acute toxicity in the case of single oral administration to mice (LD50 in mg/kg).

[3] abbreviates: in combination with compound 14.
The mark [4] stands for this setting: in combination with compound 20.
Where [5] appears, read: in combination with ketoconazole.
Where [6] appears, read: in combination with ketoconazole, synergistic when FIC <0.5.
[7] abbreviates: in combination with terbinafine.
The mark [8] stands for this setting: in combination with terbinafine, synergistic when FIC <0.5.
[9] abbreviates: in combination with ketoconazole, synergistic when FIC <0.5, hydrochloride.
Setting [10] is: in combination with ketoconazole, hydrochloride.

≈ marks a conversion by molar mass, not a printed value. Where “and” joins values, the source holds several entries; their conditions need not be identical. Identical values can stand only once. Counter-ions that a name gives are not always drawn. Like-named read-outs stand apart in the source and are kept apart here.

For orientation: MIC means the least concentration at which growth counts as inhibited. A lower MIC goes with inhibition by little substance. A word on the IC50: it is the point on the concentration scale where inhibition reaches its midpoint. In general, LD50 refers to the dose expected to kill half of the subjects tested. Read a low LD50 as greater toxicity.

T1 sequence (Q04782 whole entry): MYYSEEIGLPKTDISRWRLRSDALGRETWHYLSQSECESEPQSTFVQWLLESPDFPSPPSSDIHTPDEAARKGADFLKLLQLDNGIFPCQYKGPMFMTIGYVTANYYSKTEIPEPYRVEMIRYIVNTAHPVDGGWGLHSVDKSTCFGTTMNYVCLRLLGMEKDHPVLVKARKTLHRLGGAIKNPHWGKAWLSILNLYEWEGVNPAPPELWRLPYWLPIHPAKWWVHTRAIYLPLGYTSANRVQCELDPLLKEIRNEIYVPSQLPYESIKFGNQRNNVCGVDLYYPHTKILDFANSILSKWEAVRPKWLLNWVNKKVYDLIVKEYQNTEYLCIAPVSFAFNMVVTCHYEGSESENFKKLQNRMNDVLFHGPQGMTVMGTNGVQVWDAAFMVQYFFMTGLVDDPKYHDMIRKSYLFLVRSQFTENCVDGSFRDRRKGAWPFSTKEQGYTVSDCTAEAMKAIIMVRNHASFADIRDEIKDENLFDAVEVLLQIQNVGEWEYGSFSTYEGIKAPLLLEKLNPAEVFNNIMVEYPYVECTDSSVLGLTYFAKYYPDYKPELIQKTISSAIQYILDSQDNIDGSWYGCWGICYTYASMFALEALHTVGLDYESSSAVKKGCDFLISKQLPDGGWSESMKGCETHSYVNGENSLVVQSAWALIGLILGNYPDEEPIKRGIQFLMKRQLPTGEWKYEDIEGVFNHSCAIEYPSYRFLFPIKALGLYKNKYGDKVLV

`CC(=O)N1CCN(c2ccc(OCC3COC(Cn4ccnc4)(c4ccc(Cl)cc4Cl)O3)cc2)CC1` (centres unmarked) [ketoconazole, reference compound]: the MIC in the series with C. albicans B5 (alone, 37° C., 2 days) was found to be 0.15 µg/mL (≈ 0.282 µM); against C. albicans B4 (alone, 37° C., 2 days), 2.5 µg/mL (≈ 4.7 µM); in the series with C. albicans 3152 it was 2.5 µg/mL (≈ 4.7 µM); with C. albicans H12 (alone, 37° C., 2 days), 5 µg/mL (≈ 9.41 µM); in the series with C. albicans 3153, 2.5 µg/mL (≈ 4.7 µM); with C. albicans H29, 0.15 µg/mL (≈ 0.282 µM). For the same molecule, the MIC alone against C. albicans B5 (alone, 37° C., 2 days) turned out to be 0.3 µg/mL (≈ 0.565 µM); against C. albicans B4 (alone, 37° C., 2 days), 5 µg/mL (≈ 9.41 µM); with C. albicans H12 (alone, 37° C., 2 days) it was 10 µg/mL (≈ 18.8 µM). The “MIC of sterol biosynthesis inhibitor in combination” value in the series with C. albicans B5 (setting [3]) was 0.019 µg/mL and 0.038 µg/mL; in the series with C. albicans B5 (setting [4]) it was 0.019 µg/mL; with C. albicans B4 (setting [3]), 0.075 µg/mL and 0.15 µg/mL; in the series with C. albicans B4 (setting [4]) it was 0.075 µg/mL; with C. albicans H12 (setting [4]), 0.15 µg/mL and 0.075 µg/mL; in the series on C. albicans 3153 (setting [4]), 0.075 µg/mL. For the same molecule, the “MIC of sterol biosynthesis inhibitor in combination” value was 0.019 µg/mL and 0.038 µg/mL with C. albicans H29 (setting [3]); 0.019 µg/mL in the series on C. albicans H29 (setting [4]).
As for `C=CCN(C)Cc1ccc(-c2ccc(C(=O)c3ccc(Br)cc3)cc2)cc1` [Compound 20, 4'-[[(Allylmethylamino)methyl]-4-biphenylylp-bromophenyl ketone hydrochloride], the MIC with C. albicans B5 (alone, 37° C., 2 days) is 1 µg/mL; against C. albicans B4 (alone, 37° C., 2 days) it was 2 µg/mL; in the series on C. albicans H12 (alone, 37° C., 2 days), 2 µg/mL; in the series on C. albicans 3153, 1 µg/mL; against C. albicans H29, 1 µg/mL. Further, the “MIC of compound in combination” value in the series on C. albicans B5 (setting [5]) is 0.25 µg/mL; in the series on C. albicans B5 (setting [7]) it was 0.25 µg/mL; in the series on C. albicans B4 (setting [5]), 0.12 µg/mL; in the series with C. albicans B4 (setting [7]), 0.50 µg/mL; in the series on C. albicans H12 (setting [7]), 0.25 µg/mL; with C. albicans 3153 (setting [5]), 0.12 µg/mL. Also, the “MIC of compound in combination” value in the series with C. albicans 3153 (setting [7]) worked out at 0.12 µg/mL; in the series on C. albicans H29 (setting [5]) it was 0.25 µg/mL; in the series on C. albicans H29 (setting [7]) it was 0.25 µg/mL. Further, the FIC is 0.25 in the series on C. albicans B5 (setting [6]); 0.5 with C. albicans B5 (setting [8]); 0.093 in the series with C. albicans B4 (setting [6]); 0.266 in the series on C. albicans B4 (setting [8]); 0.156 and 0.078 with C. albicans H12 (setting [9]); 0.25 in the series on C. albicans H12 (setting [8]). Moreover, the FIC is 0.156 with C. albicans 3153 (setting [6]), 0.375 in the series on C. albicans 3153 (setting [8]), 0.375 with C. albicans H29 (setting [5]) and 0.50 in the series with C. albicans H29 (setting [7]). The IC50 in [1] (cell-free extract, pH 6.9, 30° C., 1 hour, read-out: IC50 (converted)) was 30.9 nM. The synergistic activity entry with Candida albicans is “confirm the synergistic activity”.
On to `C=CCN(C)Cc1ccc(-c2ccc(C(=O)c3ccccc3)cc2)cc1` [Compound 14, 4'-[(allylmethylamino)methyl-4-biphenylylphenyl ketone hydrochloride], for which the MIC against C. albicans B5 (alone, 37° C., 2 days) was 1 µg/mL; in the series on C. albicans B4 (alone, 37° C., 2 days) it was 2 µg/mL; in the series on C. albicans 3152 it was 1 µg/mL; in the series with C. albicans H12 (alone, 37° C., 2 days), 1 µg/mL; against C. albicans 3153, 1 µg/mL; in the series with C. albicans H29, 1 µg/mL. The “MIC of compound in combination” value is 0.06 µg/mL and 0.12 µg/mL in the series with C. albicans B5 (setting [10]); 0.25 µg/mL in the series on C. albicans B5 (setting [7]); 0.12 µg/mL and 0.06 µg/mL in the series on C. albicans B4 (setting [10]); 1 µg/mL in the series with C. albicans B4 (setting [7]); 0.06 µg/mL and 0.12 µg/mL in the series with C. albicans 3152 (setting [10]); 0.12 µg/mL and 0.06 µg/mL in the series on C. albicans H12 (setting [10]). Besides, the “MIC of compound in combination” value in the series on C. albicans H12 (setting [7]) is 0.5 µg/mL; in the series on C. albicans 3153 (setting [7]), 0.25 µg/mL; in the series with C. albicans H29 (setting [10]), 0.06 µg/mL and 0.12 µg/mL; in the series with C. albicans H29 (setting [7]), 0.25 µg/mL. Further, the FIC is 0.125 and 0.25 in the series with C. albicans B5 (setting [9]); 0.375 with C. albicans B5 (setting [8]); 0.078 and 0.040 with C. albicans B4 (setting [9]); 0.531 with C. albicans B4 (setting [8]); 0.187 and 0.156 with C. albicans 3152 (setting [9]); 0.133 and 0.125 in the series on C. albicans H12 (setting [9]). Further, the FIC in the series on C. albicans H12 (setting [8]) was 0.516; in the series on C. albicans 3153 (in combination with terbinafine, synergistic when FIC <0.5, hydrochloride), 0.281 and 0.561; in the series on C. albicans H29 (setting [7]), 0.375. In addition, in [1], the IC50 was 52.7 nM. Also, the synergistic activity result in the series with Candida albicans was “confirm the synergistic activity”. In addition, the LD50 in series [2] is more than 4000 mg/kg.

Source of the values: US5239084A, “Substituted aminoalkyl biphenyl compounds” (Hoffmann-La Roche Inc., priority 1990, dated 1993).
